In PubChem BioAssay (NCI):
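All cell lines were grown in 96-well plates and treated with compound for 48 hours. The concentration for 50% growth inhibition is given as GI50. TGI denotes the concentration required for complete inhibition of growth.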

Tests used:
Test in all cases: growth of human tumour cells (NCI), 48 h
SK-MEL-2 melanoma = tested on: SK-MEL-2 melanoma
UO-31 renal = tested on: UO-31 renal
SK-MEL-5 melanoma = tested on: SK-MEL-5 melanoma
NCI/ADR-RES ovarian = tested on: NCI/ADR-RES ovarian
UACC-257 melanoma = tested on: UACC-257 melanoma
SK-OV-3 ovarian = tested on: SK-OV-3 ovarian
MCF7 breast = tested on: MCF7 breast
HT29 colon = tested on: HT29 colon
NCI-H226 lung = tested on: NCI-H226 lung
CAKI-1 renal = tested on: CAKI-1 renal
MDA-MB-435 = tested on: MDA-MB-435
M14 melanoma = tested on: M14 melanoma
K-562 leukemia = tested on: K-562 leukemia
A498 renal = tested on: A498 renal
EKVX NSCLC = tested on: EKVX NSCLC
RXF 393 renal = tested on: RXF 393 renal
OVCAR-4 ovarian = tested on: OVCAR-4 ovarian
KM12 colon = tested on: KM12 colon
OVCAR-8 ovarian = tested on: OVCAR-8 ovarian
TK-10 renal = tested on: TK-10 renal
COLO 205 colon = tested on: COLO 205 colon
T-47D breast = tested on: T-47D breast
HCC-2998 colon = tested on: HCC-2998 colon
SW-620 colon = tested on: SW-620 colon
MALME-3M melanoma = tested on: MALME-3M melanoma
SF-539 CNS = tested on: SF-539 CNS
HCT-116 colon = tested on: HCT-116 colon
HCT-15 colon = tested on: HCT-15 colon
786-0 renal = tested on: 786-0 renal
ACHN renal = tested on: ACHN renal
SR leukemia = tested on: SR leukemia
RPMI-8226 leukemia = tested on: RPMI-8226 leukemia
HOP-92 NSCLC = tested on: HOP-92 NSCLC
MDA-MB-468 breast = tested on: MDA-MB-468 breast
PC-3 prostate = tested on: PC-3 prostate
U251 CNS = tested on: U251 CNS
SK-MEL-28 melanoma = tested on: SK-MEL-28 melanoma
SF-295 CNS = tested on: SF-295 CNS
OVCAR-3 ovarian = tested on: OVCAR-3 ovarian
DU-145 prostate = tested on: DU-145 prostate
BT-549 breast = tested on: BT-549 breast
IGROV1 ovarian = tested on: IGROV1 ovarian
SNB-19 CNS = tested on: SNB-19 CNS
HOP-62 NSCLC = tested on: HOP-62 NSCLC
SN12C renal = tested on: SN12C renal
SNB-75 CNS = tested on: SNB-75 CNS
MDA-MB-231 breast = tested on: MDA-MB-231 breast
A549 NSCLC = tested on: A549 NSCLC
SF-268 CNS = tested on: SF-268 CNS
OVCAR-5 ovarian = tested on: OVCAR-5 ovarian
NCI-H522 lung = tested on: NCI-H522 lung
NCI-H23 lung = tested on: NCI-H23 lung
HL-60(TB) leukemia = tested on: HL-60(TB) leukemia
MOLT-4 leukemia = tested on: MOLT-4 leukemia
CCRF-CEM leukemia = tested on: CCRF-CEM leukemia
LOX IMVI melanoma = tested on: LOX IMVI melanoma
NCI-H460 lung = tested on: NCI-H460 lung
UACC-62 melanoma = tested on: UACC-62 melanoma
HS 578T breast = tested on: HS 578T breast

Question: Which results are given for `C/C(=N\N=C1/C(=O)Nc2ccc(Cl)cc21)c1ccc2c(c1)Nc1ccccc1S2`?
Answer: GI50 (SK-MEL-2 melanoma): 6.77 µM; TGI (SK-MEL-2 melanoma): 20.8 µM; GI50 (UO-31 renal): 4.05 µM; TGI (UO-31 renal): 19.6 µM; GI50 (SK-MEL-5 melanoma): 3.8 µM; TGI (SK-MEL-5 melanoma): 14.4 µM; GI50 (NCI/ADR-RES ovarian): 4.74 µM; TGI (NCI/ADR-RES ovarian): 24.6 µM; GI50 (UACC-257 melanoma): 4.07 µM; TGI (UACC-257 melanoma): 18.1 µM; GI50 (SK-OV-3 ovarian): 11.9 µM; TGI (SK-OV-3 ovarian): 30.7 µM; GI50 (MCF7 breast): 3.33 µM; TGI (MCF7 breast): 13.5 µM; GI50 (HT29 colon): 4.54 µM; TGI (HT29 colon): 17.6 µM; GI50 (NCI-H226 lung): 3.49 µM; TGI (NCI-H226 lung): 19.7 µM; GI50 (CAKI-1 renal): 4.42 µM; TGI (CAKI-1 renal): 17.9 µM; GI50 (MDA-MB-435): 3.27 µM; TGI (MDA-MB-435): 15.5 µM; GI50 (M14 melanoma): 7.35 µM; TGI (M14 melanoma): 23.3 µM; GI50 (K-562 leukemia): 4.14 µM; TGI (K-562 leukemia): > 100 µM; GI50 (A498 renal): 5.89 µM; TGI (A498 renal): 18.7 µM; GI50 (EKVX NSCLC): 4.68 µM; TGI (EKVX NSCLC): 22.9 µM; GI50 (RXF 393 renal): 5.05 µM; TGI (RXF 393 renal): 19 µM; GI50 (OVCAR-4 ovarian): 4.67 µM; TGI (OVCAR-4 ovarian): 22.5 µM; GI50 (KM12 colon): 3.51 µM; TGI (KM12 colon): 14.1 µM; GI50 (OVCAR-8 ovarian): 4.2 µM; TGI (OVCAR-8 ovarian): 17.9 µM; GI50 (TK-10 renal): 7.07 µM; TGI (TK-10 renal): 23.7 µM; GI50 (COLO 205 colon): 4.84 µM; TGI (COLO 205 colon): 17.2 µM; GI50 (T-47D breast): 2.54 µM; TGI (T-47D breast): 12.8 µM; GI50 (HCC-2998 colon): 7.54 µM; TGI (HCC-2998 colon): 22.5 µM; GI50 (SW-620 colon): 5.56 µM; TGI (SW-620 colon): 20.1 µM; GI50 (MALME-3M melanoma): 7.44 µM; TGI (MALME-3M melanoma): 21.5 µM; GI50 (SF-539 CNS): 6.83 µM; TGI (SF-539 CNS): 19.8 µM; GI50 (HCT-116 colon): 4.6 µM; TGI (HCT-116 colon): 19 µM; GI50 (HCT-15 colon): 6.61 µM; TGI (HCT-15 colon): 24 µM; GI50 (786-0 renal): 2.4 µM; TGI (786-0 renal): 5.86 µM; GI50 (ACHN renal): 3.55 µM; TGI (ACHN renal): 14.1 µM; GI50 (SR leukemia): 4.4 µM; TGI (SR leukemia): 56.8 µM; GI50 (RPMI-8226 leukemia): 5.86 µM; TGI (RPMI-8226 leukemia): 99.6 µM; GI50 (HOP-92 NSCLC): 2.92 µM; TGI (HOP-92 NSCLC): 11.3 µM; GI50 (MDA-MB-468 breast): 1.8 µM; TGI (MDA-MB-468 breast): 7.31 µM; GI50 (PC-3 prostate): 3.14 µM; TGI (PC-3 prostate): 16.3 µM; GI50 (U251 CNS): 5.62 µM; TGI (U251 CNS): 18.4 µM; GI50 (SK-MEL-28 melanoma): 6.23 µM; TGI (SK-MEL-28 melanoma): 22.8 µM; GI50 (SF-295 CNS): 4.08 µM; TGI (SF-295 CNS): 17 µM; GI50 (OVCAR-3 ovarian): 10.2 µM; TGI (OVCAR-3 ovarian): 23.4 µM; GI50 (DU-145 prostate): 4.64 µM; TGI (DU-145 prostate): 18 µM; GI50 (BT-549 breast): 3.47 µM; TGI (BT-549 breast): 12.3 µM; GI50 (IGROV1 ovarian): 5.62 µM; TGI (IGROV1 ovarian): 23.1 µM; GI50 (SNB-19 CNS): 11.9 µM; TGI (SNB-19 CNS): 33.1 µM; GI50 (HOP-62 NSCLC): 12.5 µM; TGI (HOP-62 NSCLC): 27.8 µM; GI50 (SN12C renal): 4.47 µM; TGI (SN12C renal): 16.8 µM; GI50 (SNB-75 CNS): 4.28 µM; TGI (SNB-75 CNS): 19.4 µM; GI50 (MDA-MB-231 breast): 8.23 µM; TGI (MDA-MB-231 breast): 21.9 µM; GI50 (A549 NSCLC): 4.21 µM; TGI (A549 NSCLC): 17.8 µM; GI50 (SF-268 CNS): 8.19 µM; TGI (SF-268 CNS): 26.5 µM; GI50 (OVCAR-5 ovarian): 10.1 µM; TGI (OVCAR-5 ovarian): 26.2 µM; GI50 (NCI-H522 lung): 3.22 µM; TGI (NCI-H522 lung): 15.3 µM; GI50 (NCI-H23 lung): 7.3 µM; TGI (NCI-H23 lung): 21.7 µM; GI50 (HL-60(TB) leukemia): 6.21 µM; TGI (HL-60(TB) leukemia): > 100 µM; GI50 (MOLT-4 leukemia): 2.71 µM; TGI (MOLT-4 leukemia): 8.28 µM; GI50 (CCRF-CEM leukemia): 3.42 µM; TGI (CCRF-CEM leukemia): 98.5 µM; GI50 (LOX IMVI melanoma): 5.77 µM; TGI (LOX IMVI melanoma): 18.7 µM; GI50 (NCI-H460 lung): 3.17 µM; TGI (NCI-H460 lung): 10.3 µM; GI50 (UACC-62 melanoma): 4.2 µM; TGI (UACC-62 melanoma): 17.1 µM; GI50 (HS 578T breast): 6.86 µM; TGI (HS 578T breast): 41.1 µM
